Legend:
[1] = tested on: arachidonic acid induced platelet aggregation; experiment: Inhibition of arachidonic acid induced platelet aggregation in platelet-rich plasma; format: cell-based; settings: arachidonic acid 800 μM, human PRP
Description: Venous blood is collected from the antecubital vein of human volunteers who are drug free for at least one week. The blood is collected by gravity into plastic transfer bags containing 0.38% sodium citrate as the anticoagulant. Platelet-rich plasma (PRP) is prepared by centrifuging the citrated blood at 200×g for 10 min at 25° C. Platelet-poor plasma (PPP) is obtained by centrifuging the PRP at 2500×g for 30 min at 25° C. Platelet aggregation is studied photometrically (Boron, Nature 194:927-929,1962) using a Chronolog aggregometer connected to a linear recorder. The test compound is dissolved in methanol and preincubated with PRP for 2.5 minutes at 37° C. Arachidonic acid (800 μM) dissolved in 0.1 M Tris-HCl buffer, pH 8.5, is then added and the optical transmission recorded for at least 3 minutes. The rate of increase in optical transmission, which is a measure of the initial velocity of aggregation, is measured by determining the slope of the steepest part of the curve.

Thromboxane synthetase [2] = biological target: T1, Thromboxane synthetase (Homo sapiens, UniProt P24557); experiment: Inhibition of thromboxane synthetase (platelet membrane preparation, 14C-arachidonic acid to thromboxane-B2); format: biochemical
T1 construct: from tissue; host or cells: blood platelets from fresh platelet-rich plasma (PRP), lysed membrane suspension
T1 sequence (P24557 1-533): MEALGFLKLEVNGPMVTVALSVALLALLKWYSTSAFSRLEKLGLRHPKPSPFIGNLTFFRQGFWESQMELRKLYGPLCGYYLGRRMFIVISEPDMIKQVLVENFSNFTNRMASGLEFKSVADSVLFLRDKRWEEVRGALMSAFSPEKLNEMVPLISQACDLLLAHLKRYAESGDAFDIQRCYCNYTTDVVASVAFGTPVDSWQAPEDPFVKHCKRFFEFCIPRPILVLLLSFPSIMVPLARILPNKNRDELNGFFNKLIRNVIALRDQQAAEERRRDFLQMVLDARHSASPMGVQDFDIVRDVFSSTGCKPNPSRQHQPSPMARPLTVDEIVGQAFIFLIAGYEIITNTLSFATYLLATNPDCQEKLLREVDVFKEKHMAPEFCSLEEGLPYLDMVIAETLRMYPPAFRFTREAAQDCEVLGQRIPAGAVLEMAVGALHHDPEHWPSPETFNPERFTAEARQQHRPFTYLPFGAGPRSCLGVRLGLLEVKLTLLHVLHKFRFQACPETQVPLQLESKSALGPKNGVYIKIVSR
Description: Thromboxane synthetase is prepared from fresh PRP according to the procedure of Nijkamp et al, supra. Briefly, a platelet pellet is washed in physiological saline, and the platelets lysed by a combination of freeze-thaw cycles and homogenizations. This platelet membrane suspension is divided into small aliquots and stored at -70° C. until used. Thromboxane synthetase activity is determined by incubating the platelet preparation with ^14 C-arachidonic acid in a reaction mixture containing epinephrine, reduced glutathione, and Tris-HCl buffer, pH 7.5. Thromboxane synthetase activity is determined in the presence of the test compound dissolved in methanol, or of the methanol control. The reaction is carried out for 3-5 minutes at 37° C. and stopped by the addition of 2N HCl. In some instances, aliquots of the reaction mixtures are spotted directly on Quantum thin layer plates for thin layer chromatography of reaction mixture components. In other experiments, the lipids in the reaction mixture are extracted into ethyl acetate. After the ethyl acetate is taken to dryness, the lipid residue is dissolved in ethanol and aliquots spotted on the thin layer plates. In either instance, the plates are developed using chloroform:methanol:acetic acid (90:5:5) as solvent system. […] The radioactivity that migrates in the area of thromboxane-B2 is then determined by liquid scintillation spectrometry.

[3] = tested on: arachidonic acid-induced bronchoconstriction; experiment: Inhibition of arachidonic acid-induced bronchoconstriction in the anesthetized guinea pig; format: in vivo
Description: (§1) Male guinea pigs weighing 480-520 g are anesthetized with urethane (1.5 g/kg, i.p.). Spontaneous respiration is arrested with succinylchloline chloride (1.5 mg/kg, i.p.). The guinea pigs are artificially ventilated with a Palmer respiration pump through a tracheal cannula at a rate of 72 strokes/min and a stroke volume of 3 ml.
(§2) Pulmonary resistance and dynamic compliance are determined by the method described by Amdur and Mead, "Mechanics of Respiration in Unanesthetized Guinea Pigs", Amer. J. Physiol. 192, 364-368, as modified by Giles et al. (1973), "The Bronchodilator and Cardiac Stimulant Effects of Th 1165A, Salbutamol, and Isoproterenol", J. Pharmacol. Exp. Ther. 186, 472-481. Respiratory flow is measured with a Fleisch pneumotachograph (No. 000) and a Validyne (MP 45) differential pressure transducer. Transpulmonary pressure is determined by monitoring the difference between pressure in the external end of a tracheal cannula and the pressure in the pleural cavity by means of a Validyne MP 45 differential pressure transducer. The flow and pressure signals are fed into an on-line analog Pulmonary Mechanics Computer (Buxco Electronics, Inc.) which provides calculation of pulmonary resistance and dynamic compliance. The computer output of flow, pressure, volume, resistance and dynamic compliance are recorded on a Brush 260 recorder. Blood pressure is measured from a carotid artery with a Statham P23Db transducer and heart rate is derived from the pulse pressure. Both blood pressure and heart rate are recorded with the Buxco pulmonary mechanics computer. All parameters are digitalized by a Data Logger, Model DL-12 Buxco electronics and recorded on a Texas Instrument silent 700 ASR printer.
Arachidonic acid (AA) (0.25 mg/kg i.v.) is administered to groups of 4-5 guinea pigs 15 minutes before and 3 and 10 minutes after the administration of the test compound (0.1, 0.3 and 1.0 mg/kg i.v.). The administration of AA causes substantial increases in pulmonary resistance (R) and decrease in dynamic compliance (C) of 70% and 50% respectively. […] The inhibitory effect of the test compound lasts for less than 10 minutes.

[4] = tested on: histamine-induced bronchoconstriction; experiment: Specificity test: histamine-induced bronchoconstriction in the anesthetized guinea pig; format: in vivo; settings: 1.0 mg/kg i.v.; histamine 5.0 μg/kg i.v.
Description: as §1
as §2, with “The flow and pressure signals are fed into an on-line analog Pulmonary Mechanics Computer (Buxco Electronics, Inc.) which provides calculation of pulmonary resistance and dynamic compliance.” left out, “All parameters are digitalized by a Data Logger, Model DL-12 Buxco electronics and recorded on a Texas Instrument silent 700 ASR printer.” left out

thromboxane synthetase [5] = settings: cited from earlier work

SMILES | IC50 ([1]; read-out: I50 (concentration to achieve 50% inhibition) of platelet aggregation) [µM] | inhibition at 1000 µM ([1]; screening concentration 1 mM, read-out: effectiveness in inhibiting platelet aggregation) [%] | inhibition at 1000 µM (Thromboxane synthetase [2]; at 1000 μM) [%] | IC50 (Thromboxane synthetase [2]; read-out: I50 thromboxane synthetase) [µM] | duration of hypertension ([3]; 0.1, 0.3 and 1.0 mg/kg i.v.) | effect of compound alone on R, C or heart rate ([3]; 0.1, 0.3 and 1.0 mg/kg i.v.) | effect on blood pressure ([3]; 0.1, 0.3 and 1.0 mg/kg i.v.) | duration of inhibitory effect on AA-induced changes ([3]; 0.1-1.0 mg/kg i.v.) | effect on AA-induced changes in pulmonary resistance (R) and dynamic compliance (C) ([3]; 0.1-1.0 mg/kg i.v. given before AA 0.25 mg/kg i.v.) | effect on histamine-induced increases in R and decreases in C [4] | inhibition of thromboxane synthetase (literature) (thromboxane synthetase [5])
C(=Cc1ccccc1)Cn1ccnc1.Cl [test compound, 1-(3-phenyl-2-propenyl)-1H-imidazole, hydrochloride (1:1)] | 30 | 100 | 83 | 30 | up to 30 minutes | does not significantly alter | profound hypertension of long duration | less than 10 minutes | significant dose dependent decrease | not altered | –
c1c[nH]cn1 [imidazole] | – | – | – | – | – | – | – | – | – | – | specific inhibitor
